Here are results for 3 compounds from ChEMBL document CHEMBL1821595, “Covalent stabilization of a small molecule-RNA complex” (Bioorg Med Chem Lett, 2011).

Holding throughout (format): nucleic-acid assay
The test system of test [1] is Nucleic Acid. Put plainly: Binding affinity to thiol-bearing RNA1 aptamer assessed as RNA1-compound conjugate formation at 1 uM by MALDI-MS 123 analysis.
Test [2] deals with Nucleic Acid. Put plainly: Binding affinity to thiol-bearing RNA2 aptamer assessed as RNA2-compound conjugate formation at 1 uM by MALDI-MS 123 analysis.
Test [3] has as its system Nucleic Acid. Kind of test: Binding affinity to thiol-bearing RNA2 aptamer assessed as RNA2-compound conjugate formation at 1 uM after 1 hr by MALDI-MS analysis in presence of complementary DNA.
The test system of test [4] is Nucleic Acid. Kind of test: Binding affinity to thiol-bearing RNA1 aptamer assessed as RNA1-compound conjugate formation at 1 uM after 1 hr by MALDI-MS analysis in presence of complementary DNA.
For test [5], the system named is Nucleic Acid. Put plainly: Binding affinity to thiol-bearing RNA1 aptamer assessed as RNA1-compound conjugate formation at 1 uM after 1 hr by MALDI-MS analysis in presence of non-complementary DNA and 1 uM iodoacetamide.
Test [6] has as its system Nucleic Acid. Kind of test: Covalent binding affinity to thiol-bearing RNA1 aptamer assessed as rate constant at 1 uM by MALDI-MS analysis.
Test [7] concerns Nucleic Acid. Put plainly: Binding affinity to RNA1-DNA hybrid assessed as inhibition of RNA1/DNA hybrid-compound conjugate formation at 1 uM after 1 hr by MALDI-MS analysis.
The test system of test [8] is Nucleic Acid. Kind of test: Binding affinity to thiol-bearing RNA1 aptamer assessed as RNA1-compound conjugate formation at 1 uM after 1 hr by MALDI-MS analysis in presence of non-complementary DNA.

The source made the active and inactive calls. No cut-off for these calls is given here.

`CC(C)[C@H](NC(=O)[C@H](CO)NC(=O)CBr)C(=O)NCc1ccc(Nc2cc(-c3ccccc3)nc3c(C(=O)N[C@@H](CCCNC(=N)N)C(N)=O)cccc23)cc1`: the outcome with Nucleic Acid [1] and in the test with Nucleic Acid [2] was Active. Moreover, the outcome in the test on Nucleic Acid [3] and in the test with Nucleic Acid [4] was inactive.
As to `N=C(N)NCCC[C@H](NC(=O)c1cccc2c(Nc3ccc(CNC(=O)CBr)cc3)cc(-c3ccccc3)nc12)C(N)=O`, the Activity in the test on Nucleic Acid [5] and in the test with Nucleic Acid [1] was 90% in each case. For the same compound, the K in the test on Nucleic Acid [6] was 5.5 ×10⁻² /min. The result in the test with Nucleic Acid [7] and in the test on Nucleic Acid [8] was inactive. Besides, the outcome in the test on Nucleic Acid [2] was Active.
Consider `CC(C)[C@H](NC(=O)CBr)C(=O)NCc1ccc(Nc2cc(-c3ccccc3)nc3c(C(=O)N[C@@H](CCCNC(=N)N)C(N)=O)cccc23)cc1`, for which the outcome with Nucleic Acid [1] and with Nucleic Acid [2] was Active. The outcome in the test with Nucleic Acid [3] and with Nucleic Acid [4] was inactive.
